Literature values in patent publication US9248110B2, “Compositions and methods of treating and preventing lung cancer and lymphangioleiomyomatosis” (priority 2010, dated 2016).
Where two headings read alike, the source gives them in different places.

Test system: Lewis lung LLC1 cells
Settings: orally administered

CN(C)C(=N)N=C(N)N [metformin]
tumor growth (mice fed a high-energy diet): reduce tumor growth | tumor growth (mice on a control diet): no effect on tumor growth
